Results published in patent US10645927B2, “Antimicrobial wipe” (Carefusion 2200, Inc., priority 2015, dated 2020).
Where a name gives a salt, the structure may show the parent alone. Marks after values point to notes of the source that are not given here.

System: Staphylococcus aureus ATCC 29213
Experiment: Bactericidal activity by time kill method
Format: cell-based
Conditions: for Average Log: Baseline 7.123; for concentration required to deliver >3 log reduction in viable count: within 30 seconds of contact time
Procedure: Multiple surfactants in solution formulations were tested for use with the wipes. Effects of individual excipients such as phosphate buffer, polysorbate 20, nonoxynol-9, Cremophor® RH-40, dimethicone, and combinations of these products were investigated to determine the possibility of adverse effects on the antimicrobial efficacy of octenidine dihydrochloride. Bactericidal activities of octenidine dihydrochloride alone and in combinations with various excipients (Table 11) were tested by a time kill method using Staphylococcus aureus ATCC 29213 as test organism (Table 12).
Neutralizing effects of two similar surfactants, 0.5% Cremophor® RH40 and 0.5% polysorbate 20, on the bactericidal activity of octenidine dihydrochloride were tested using the Staphylococcus aureus ATCC 29213 as test organism (Table 13 and 14).

[1] = OCT 20 PPM, 0.5% Cremophor ® RH40, 30 seconds
[2] = OCT 20 PPM, 0.5% Polysorbate 20, 30 seconds
[3] = OCT 20 PPM, Aqueous, 30 seconds
[4] = OCT 100 PPM, 0.5% Cremophor ® RH40, 30 seconds
[5] = OCT 100 PPM, 0.5% Polysorbate 20, 30 seconds
[6] = OCT 100 PPM, Aqueous, 30 seconds
[7] = OCT 500 PPM, 0.5% Cremophor ® RH40, 30 seconds
[8] = OCT 500 PPM, 0.5% Polysorbate 20, 30 seconds
[9] = OCT 500 PPM, Aqueous, 30 seconds
[10] = OCT 4000 PPM, Full base formulation with Cremophor ® RH40
[11] = OCT 4000 PPM, Full base formulation with Polysorbate 20 (Table 13)

## CCCCCCCCN=c1ccn(CCCCCCCCCCn2ccc(=NCCCCCCCC)cc2)cc1 [OCT, octenidine dihydrochloride]
OCT 2 PPM in 0.1% Nonoxynol-9 in water, 30 seconds
  Log Reduction: 1.52
OCT 2 PPM in 0.25% Dimethicone in water, 30 seconds
  Log Reduction: 1.17
OCT 2 PPM in 1.5% Polysorbate 20 in water, 30 seconds
  Log Reduction: 0.30
OCT 2 PPM in Full base formulation with Nonoxynol-9 and Polysorbate 20 (Table 11), 30 seconds
  Log Reduction: 0.29
OCT 2 PPM in Full base formulation with Polysorbate 20 (Table 11), 30 seconds
  Log Reduction: 0.04
OCT 2 PPM in Phosphate Buffered Water, pH 6.0, 30 seconds
  Log Reduction: 1.39
OCT 2 PPM in Water, contact time 30 seconds
  Log Reduction: 3.41
OCT 20 PPM in 0.1% Nonoxynol-9 in water, 30 seconds
  Log Reduction: 2.94
OCT 20 PPM in 0.25% Dimethicone in water, 30 seconds
  Log Reduction: 1.41
OCT 20 PPM in 1.5% Polysorbate 20 in water, 30 seconds
  Log Reduction: 0.57
OCT 20 PPM in Full base formulation with Nonoxynol-9 and Polysorbate 20 (Table 11), 30 seconds
  Log Reduction: 0.58
OCT 20 PPM in Full base formulation with Polysorbate 20 (Table 11), 30 seconds
  Log Reduction: 0.35
OCT 20 PPM in Phosphate Buffered Water, pH 6.0, 30 seconds
  Log Reduction: 2.87
OCT 20 PPM in Water, contact time 30 seconds
  Log Reduction: 3.78
[1]
  Average Log Reduction: 0.740
  Percent Reduction: 81.808%
  Average Log: 6.383
[2]
  Average Log Reduction: 0.795
  Percent Reduction: 83.979%
  Average Log: 6.327
[3]
  Average Log Reduction: 5.123
  Percent Reduction: 99.999%
  Average Log: 2.000
OCT 100 PPM in 0.1% Nonoxynol-9 in water, 30 seconds
  Log Reduction: 4.69
OCT 100 PPM in 0.25% Dimethicone in water, 30 seconds
  Log Reduction: 1.67
OCT 100 PPM in 1.5% Polysorbate 20 in water, 30 seconds
  Log Reduction: 1.01
OCT 100 PPM in Full base formulation with Nonoxynol-9 and Polysorbate 20 (Table 11), 30 seconds
  Log Reduction: 0.60
OCT 100 PPM in Full base formulation with Polysorbate 20 (Table 11), 30 seconds
  Log Reduction: 0.49
OCT 100 PPM in Phosphate Buffered Water, pH 6.0, 30 seconds
  Log Reduction: 4.78
OCT 100 PPM in Water, contact time 30 seconds
  Log Reduction: 4.65
[4]
  Average Log Reduction: 1.472
  Percent Reduction: 96.624%
  Average Log: 5.651
[5]
  Average Log Reduction: 1.205
  Percent Reduction: 93.767%
  Average Log: 5.917
[6]
  Average Log Reduction: 5.123
  Percent Reduction: 99.999%
  Average Log: 2.000
OCT 500 PPM in 0.1% Nonoxynol-9 in water, 30 seconds
  Log Reduction: 5.12
OCT 500 PPM in 0.25% Dimethicone in water, 30 seconds
  Log Reduction: 2.12
OCT 500 PPM in 1.5% Polysorbate 20 in water, 30 seconds
  Log Reduction: 1.12
OCT 500 PPM in Full base formulation with Nonoxynol-9 and Polysorbate 20 (Table 11), 30 seconds
  Log Reduction: 1.40
OCT 500 PPM in Full base formulation with Polysorbate 20 (Table 11), 30 seconds
  Log Reduction: 0.76
OCT 500 PPM in Phosphate Buffered Water, pH 6.0, 30 seconds
  Log Reduction: 5.12
OCT 500 PPM in Water, contact time 30 seconds
  Log Reduction: 5.12
[7]
  Average Log Reduction: 5.123
  Percent Reduction: 99.999%
  Average Log: 2.000
[8]
  Average Log Reduction: 3.080
  Percent Reduction: 99.917%
  Average Log: 4.043
[9]
  Average Log Reduction: 5.123
  Percent Reduction: 99.999%
  Average Log: 2.000
OCT 1000 PPM in Full base formulation with Nonoxynol-9 and Polysorbate 20, total kill, value is limit of detection
  Log Reduction: ≥ 3.94*
OCT 2000 PPM in Full base formulation with Nonoxynol-9 and Polysorbate 20, total kill, value is limit of detection
  Log Reduction: ≥ 4.14*
OCT 4000 PPM in Full base formulation with Nonoxynol-9 and Polysorbate 20, total kill, value is limit of detection
  Log Reduction: ≥ 4.14*
[10]
  Average Log Reduction: 4.123
  Percent Reduction: 99.992%
  Average Log: 3.000
[11]
  Average Log Reduction: 4.123
  Percent Reduction: 99.992%
  Average Log: 3.000
Staphylococcus aureus, ATCC29213, octenidine dihydrochloride alone, 2 PPM, contact time of 30 seconds
  percent reduction in viable count at 2 ppm: > 99.9%
Dissolved in pH 6.0 phosphate buffered water
  concentration required to show 99.9% reduction in viable count: > 20 PPM
Higher than 1000 PPM of octenidine dihydrochloride, full base formulation of Table 11
  microbicidal activity in the full base formulation: rapidly microbicidal
pH 6.0 phosphate buffered water vs water
  concentration required for 99.9% reduction relative to the concentration in water: > 10 times
With 0.5% Cremophor® RH40
  concentration required to deliver >3 log reduction in viable count: 500 PPM
With 0.5% polysorbate 20
  concentration required to deliver >3 log reduction in viable count: 500 PPM
